Holding throughout (assay): NCI-60 cell line screen, 48 h
Test [1] relates to MALME-3M melanoma.
Test [2] concerns IGROV1 ovarian.
Test [3] concerns LOX IMVI melanoma.
Test [4] concerns SNB-19 CNS.
For test [5], the system named is MDA-MB-231 breast.
Test [6] relates to SF-295 CNS.
Test [7] deals with A549 NSCLC.
Test [8] has as its system CCRF-CEM leukemia.
The test system of test [9] is HT29 colon.
The subject of test [10] is SK-OV-3 ovarian.

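Cultured in 96-well plates, cells were exposed to test compound for 48 hours across five concentrations. GI50 = concentration required for 50% inhibition of growth. At the TGI there is no net growth.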

With `N#Cc1c(N)nc(N2CCOCC2)c(C#N)c1-c1c(Cl)cccc1Cl`, the GI50 in test [1] is 3.72 µM; in [2] it was 1.98 µM; in [3], 5.88 µM; in test [4], 6.09 µM; in test [5], 3.57 µM; in test [6] it was 4.4 µM. The GI50 in test [7] is 10.3 µM; in test [8], 4.91 µM; in test [9], 3.33 µM; in test [10], 4.09 µM. The TGI in [1] was found to be 13.5 µM; in [2] it was 5.08 µM; in [3] it was 24 µM; in test [4], 25.6 µM; in test [5], 15.4 µM; in test [6], 43.2 µM. Besides, the TGI worked out at 95.6 µM in [7], 46.6 µM in test [8], 17.4 µM in [9] and 21 µM in [10].

Take `O=C1NC(=NCCc2ccc(Br)cc2)S/C1=C\c1ccc2ncccc2c1`: the GI50 in test [1] was more than 21.7 µM; in test [2] it was more than 25 µM; in test [3], more than 25 µM; in test [4] it was more than 25 µM; in test [5] it was more than 25 µM; in test [6], more than 23.2 µM. Also, the GI50 in test [7] was more than 25 µM; in [8], 21.1 µM; in test [9], more than 25 µM; in test [10], more than 25 µM. The TGI in [1], in [2], in test [3], in test [4], in [5] and in [6] was more than 25 µM each time. The TGI in [7], in test [8], in test [9] and in [10] was more than 25 µM each time.

Take `CC(C)(C)[Si](C)(C)OC1[C@@H](COC(=O)NC(=O)CCl)O[C@@H](n2cnc3c(N)ncnc32)[C@H]1O[Si](C)(C)C(C)(C)C` (stereo not given in full): the GI50 in [1] was 0.984 µM; in [2], 0.783 µM; in test [3], 0.41 µM; in test [4] it was 7.61 µM; in [5] it was 1.12 µM; in [6] it was 7.52 µM. Besides, the GI50 in [7] is 4.94 µM; in test [8], 0.232 µM; in test [9] it was 2.59 µM; in test [10] it was 2.92 µM. For the same compound, the TGI in [1] was 2.01 µM; in [2] it was 1.67 µM; in test [3], 1.13 µM; in [4], 14.7 µM; in [5], 2.76 µM; in test [6], 14.3 µM. The TGI is 11.9 µM in test [7], 0.931 µM in test [8], 8.53 µM in test [9] and 5.95 µM in [10].

Take `C=C(C)C(=O)Nc1ccc(-c2c(-c3ccc(Oc4nccc(C)n4)c(F)c3)c3c(N)ncnc3n2C)cc1`: the GI50 is 3.29 µM in test [1]; 3.1 µM in test [2]; 2.61 µM in test [3]; 10.7 µM in [4]; 3.57 µM in test [5]; 2.59 µM in test [6]. Also, the GI50 in test [7] is 3.6 µM; in test [8], 5.25 µM; in [9], 3.22 µM; in test [10] it was 14.7 µM. In addition, the TGI in test [1] is 17 µM; in [2], 17.4 µM; in test [3], 12.8 µM; in test [4] it was more than 100 µM; in test [5], 22.2 µM; in test [6], 13.4 µM. The TGI is 18.5 µM in test [7], more than 100 µM in test [8], 14.2 µM in [9] and 69.2 µM in [10].

Take `CCC(=O)Nc1nnc(Cc2ccc(OC)c(OC)c2)s1`: the GI50 in [1], in [2], in [3], in [4], in test [5] and in test [6] was more than 100 µM in each case. Moreover, the GI50 in test [7], in test [8], in test [9] and in test [10] was more than 100 µM each time. Also, the TGI in test [1], in test [2], in test [3], in test [4], in test [5] and in test [6] was more than 100 µM throughout. Besides, the TGI in [7], in test [8], in test [9] and in test [10] was more than 100 µM in each case.

For the compound `COC(=O)CC1=C(C)/C(=C/c2[nH]c(-c3ccc[nH]3)cc2OC)N=C1C`, the GI50 in test [1] was 0.72 µM; in test [2], 0.34 µM; in [3], 0.042 µM; in test [4], 1.35 µM; in [5], 0.0681 µM; in test [6], 0.332 µM. Further, the GI50 is 0.248 µM in test [7], 0.0768 µM in test [8], 0.0375 µM in test [9] and 0.581 µM in test [10]. For the same compound, the TGI in test [1] is 2.35 µM; in test [2], 6.69 µM; in test [3] it was 0.159 µM; in [4] it was 14.2 µM; in test [5], 0.994 µM; in [6] it was 1.69 µM. Besides, the TGI in test [7] was 3.69 µM; in [8], 5.34 µM; in test [9], 1.19 µM; in test [10] it was 4.19 µM.

For the compound `Cc1ccc(-c2nc3sc(C)cn3c2/C=C2\C(=O)Nc3ccc(Cl)cc32)cc1`, the GI50 in test [1] is 14.9 µM; in [2] it was 12.6 µM; in test [3], 13.8 µM; in [4] it was 10.6 µM; in [5] it was 4.35 µM; in test [6], 8.2 µM. The GI50 in test [7] was 14.1 µM; in [8] it was 29.3 µM; in [9], 20.3 µM; in [10] it was 7.05 µM. Also, the TGI in test [1] turned out to be 35.6 µM; in test [2] it was 27.6 µM; in test [3] it was 26.7 µM; in [4] it was 27.7 µM; in [5] it was 20.1 µM; in test [6], 32.9 µM. The TGI in test [7] came out at 27.8 µM; in [8], 93.6 µM; in test [9], 41.4 µM; in [10] it was 25.1 µM.

With `C=CCSC(C)=O`, the TGI in test [1], in test [2], in test [3], in [4], in test [5] and in [6] was more than 100 µM each time. Further, the TGI in test [7], in test [8], in test [9] and in test [10] was more than 100 µM in each case.
